From PubChem BioAssay AID1549 (Sanford-Burnham Center for Chemical Genomics, 2009) come the findings set out here.

Activity calls are given as the source filed them. How the calls were made is not given here. Where only a bound is given, the exact number is not on record here.

The target of the assay is Influenza A virus M2 proton channel (A/TW/4845/1999 H1N1). The assay can be described thus: M2 proton channel binding, NMR based, influenza A virus H1N1 strain (AID 1549). The following applies: NMR binding screen, M2 protein.
The term Kd denotes the equilibrium constant for the complex coming apart. Take `O=C(O)C1Cc2ccccc2N1` (stereo unspecified): the Kd was > 4 mM (inactive). As for `[O-][n+]1c2ccccc2[n+]([O-])c2cc(O)ccc21`, the figure is > 4 mM (inactive). With `Cc1ccc(CN2CCN(C(=O)C3CCC3)CC2)cc1`, the Kd is > 4 mM (inactive). As for `C1CCN2C[C@@H]3C[C@H](CN4CCCC[C@@H]34)[C@H]2C1`, the figure is > 4 mM (inactive); as for `O=C(O)C1CC(C2CCCCN2)CN2CCCCC12` (stereo unspecified), > 4 mM (inactive).

With `COc1ccccc1-c1nc(-c2ccc(C)nc2OC)no1`, the Kd is > 4 mM (inactive). As for `CCOC(=O)C1CN(C)CCN1C` (stereo unspecified), the figure is > 4 mM (inactive). The value for `CC(=O)O[C@@H]1CC2C(C)(CC[C@H](O)C2(C)C)C2CC[C@]3(C)C(=CC(=O)O[C@H]3c3ccoc3)C21C` (stereo partly specified) was > 4 mM (inactive); that for `NCc1nc2ccccc2s1` was > 4 mM (inactive); that for `Cc1nn(CC(=O)N2CCCCC2)c(=O)c2ccccc12` was > 4 mM (inactive). As for `CC1(C)C(=O)[C@@H]2O[C@@H]2[C@@]2(C)C1C[C@@H](O)[C@]1(C)C2CC[C@@]2(C)[C@H](c3ccoc3)OC(=O)C3OC321` (stereo partly specified), the figure is > 4 mM (inactive). `NS(=O)(=O)c1ccc(NC(=O)C2CC2)cc1`: the Kd is > 4 mM (inactive).

As for `CCOCC(=O)N1CCc2ccccc21`, the Kd was > 4 mM (inactive). The value for `Cc1cc(C)n(-c2cccc3cccnc23)n1` was > 4 mM (inactive); that for `Cn1ncc(C(=O)NC2CCCCC2)c1Cl` was > 4 mM (inactive). The value for `COc1c(-c2coc3cc4c(cc3c2=O)CC(OC(C)=O)C(C)(C)O4)ccc2c1C=CC(C)(C)O2` (stereo unspecified) was > 4 mM (inactive). The value for `COc1cc(/C=C2\SC(=S)NC2=O)ccc1O` was > 4 mM (inactive).

On to `COc1cccc(N2CCNCC2)c1`, for which the Kd is > 4 mM (inactive). Turning to `Cc1nnc(Nc2ccc(S(N)(=O)=O)cc2)[nH]c1=O`, the Kd was > 4 mM (inactive). Turning to `Cn1cnnc1SCC(=O)Nc1ccccc1`, the Kd was > 4 mM (inactive). The value for `CC(=O)c1ccc(NC(=S)N2CCC(O)CC2)cc1` was > 4 mM (inactive); that for `O=C1C2CCCCC2C(=O)N1c1ccc(O)cc1` (stereo unspecified) was > 4 mM (inactive).

`C[C@]12CC(=O)C3C(CC[C@@H]4C[C@H](O)CC[C@]34C)C1CC[C@]2(O)C(=O)CO` (stereo partly specified): the Kd was > 4 mM (inactive). The value for `O=C(O)C1COc2ccccc2O1` (stereo unspecified) was > 4 mM (inactive); that for `NC1=NC(=O)C(Cc2cccc([N+](=O)[O-])c2)S1` (stereo unspecified) was > 4 mM (inactive). As for `COc1ccccc1C(=O)NC1CCN(C)CC1`, the figure is > 4 mM (inactive); as for `COC(=O)[C@@H]1OC(=O)[C@H]2O[C@@]23[C@@]1(C)CCC1[C@@]2(C)CCC(=O)C(C)(C)C2C[C@@H](OC(C)=O)[C@]13C` (stereo partly specified), > 4 mM (inactive); as for `CC(=O)Nc1ccc(Nc2nnc(C)c(=O)[nH]2)cc1`, > 4 mM (inactive). As for `CCCSc1nnc2[nH]c(=O)cc(N)n12`, the figure is > 4 mM (inactive); as for `CC1(C)CC2(CCO1)NCCN1C(=O)CSC12` (stereo unspecified), > 4 mM (inactive); as for `Nc1nc(SCc2ccc3c(c2)OCO3)n[nH]1`, > 4 mM (inactive). Take `Cc1cccc(N2CCN(C(=O)c3ccncc3)CC2)c1C`: the Kd was > 4 mM (inactive). Regarding `CC(CC(O)C1OC1(C)C)[C@@H]1CCC2(C)C3=CCC4C(C)(C)C(=O)CCC4(C)C3CC[C@@]12C` (stereo partly specified), the Kd is > 4 mM (inactive). As for `NC(N)=Nc1nc2ccccc2o1`, the figure is > 4 mM (inactive). Regarding `CC1(C)N=C2C(=[N+]1[O-])CCC/C2=N\O`, the Kd is > 4 mM (inactive). As for `Cc1ccc(/C=N/n2c(C)nnc2C)cc1`, the figure is > 4 mM (inactive); as for `O=C1CCCC2C3CC(CN12)[C@@H]1CCCCN1C3` (stereo partly specified), > 4 mM (inactive); as for `CN1C(=O)/C(=C/c2ccc(O)cc2O)SC1=S`, > 4 mM (inactive). The value for `CCOC(=O)c1csc(C)n1` was > 4 mM (inactive).

For the compound `Cc1c(/C=N/O)cnn1C`, the Kd was > 4 mM (inactive). As for `S=C(Nc1ccccc1)Nc1nncs1`, the figure is > 4 mM (inactive).

Regarding `CS/C(N)=C\C(C)=O`, the Kd was > 4 mM (inactive). On to `O=C(O)c1ccc(CN2CCCCC2)o1`, for which the Kd was > 4 mM (inactive). The value for `c1ccc(Cc2nnc(-c3ccccc3)o2)cc1` was > 4 mM (inactive); that for `COc1ccccc1-c1c(C)nn2c(C)c(C(C)=O)cnc12` was > 4 mM (inactive); that for `O=C(CSc1ncn[nH]1)c1ccc2c(c1)OCO2` was > 4 mM (inactive).

As for `C[C@]12C=CC(=O)C=C1CCC1C2CC[C@]2(C)C(=O)CCC12` (stereo partly specified), the Kd was > 4 mM (inactive). As for `CC12CNCC(C)(CNC1)C2O` (stereo unspecified), the Kd is > 4 mM (inactive).

Take `CN(Cc1nc2ccccc2n1C)C(=O)c1cccs1`: the Kd was > 4 mM (inactive). Turning to `CCN1CCN(CCCNc2ncnc3nc[nH]c23)CC1`, the Kd is > 4 mM (inactive). The value for `O=c1nc(NCc2ccco2)sc2ncccc12` was > 4 mM (inactive); that for `Cc1nnsc1C(=O)Nc1ccccn1` was > 4 mM (inactive); that for `Nc1ccc(CCC(=O)O)cc1` was > 4 mM (inactive). The value for `NC(=O)c1ccccc1N1CCCCC1` was > 4 mM (inactive).

In the case of `CSc1ccn(CCC(=O)O)c(=O)n1`, the Kd was > 4 mM (inactive).

In the case of `CC(=O)Nc1ccc2c(c1)n(C)c(=O)n2C`, the Kd is > 4 mM (inactive). Turning to `Cc1[nH]c2ccccc2c1C(=O)CSc1ncn[nH]1`, the Kd is > 4 mM (inactive).

As for `CCn1c(C)c(C(C)=O)c(N2CCN(C)CC2)nc1=S`, the Kd is > 4 mM (inactive). The value for `CSc1nc(NC(C)(C)C)nc(N2CCOCC2)n1` was > 4 mM (inactive); that for `CC(=O)OC/C=C(\C)CC/C=C(\C)CC/C=C(\C)CC/C=C(\C)CC/C=C(\C)CC/C=C(\C)CC/C=C(\C)CC/C=C(\C)CCC=C(C)C` was > 4 mM (inactive); that for `NC1=NC(=O)/C(=C/c2ccc(O)c(Cl)c2)S1` was > 4 mM (inactive). As for `CC(=O)Oc1cc2c(C(C)=O)coc2c2ccccc12`, the figure is > 4 mM (inactive); as for `N#CCN1C(=O)c2ccccc2S1(=O)=O`, > 4 mM (inactive). As for `CC(C)C(=O)NC(=S)N1CCOCC1`, the figure is > 4 mM (inactive). On to `O=CN1CCN(C(=O)c2ccco2)CC1`, for which the Kd was > 4 mM (inactive). As for `NC(CCC(=O)Nc1ccc([N+](=O)[O-])cc1)C(=O)O` (stereo unspecified), the figure is > 4 mM (inactive); as for `Cn1cnc2c(=S)[nH]c(=O)n(Cc3ccccc3)c21`, > 4 mM (inactive). For `CCN1CC2(C)CC[C@H](OC)[C@]34C2[C@H](O)C2(OCO[C@@]25C[C@H](OC)[C@H]2C[C@]3(O)C5[C@H]2O)C14`, the Kd is > 4 mM (inactive). `CN1CCN(C(=O)C2CCCNC2)CC1` (stereo unspecified): the Kd is > 4 mM (inactive). As for `Cc1ccc(SCc2cc(=O)n3[nH]c(C)nc3n2)cc1`, the figure is > 4 mM (inactive). As for `O=C(Nc1nncs1)Oc1ccccc1`, the figure is > 4 mM (inactive). As for `Cc1cc(NC(=O)Cc2cccs2)no1`, the figure is > 4 mM (inactive); as for `O=C(O)C1CCCCN1Cc1ccccc1` (stereo unspecified), > 4 mM (inactive). For the compound `NC(=O)C1CCN(CN2C(=O)c3ccccc3C2=O)CC1`, the Kd was > 4 mM (inactive).

On to `NC(=O)NCCCC(N)C(=O)O` (stereo unspecified), for which the Kd is > 4 mM (inactive).

`Nc1ccc(C2SCCS2)cc1`: the Kd is > 4 mM (inactive). As for `S=C(NCc1cccnc1)NC1CC1`, the figure is > 4 mM (inactive); as for `Oc1ccccc1N=Cc1cccnc1`, > 4 mM (inactive). In the case of `O=C(CC1CCCCC1)N1CCN(c2ccccn2)CC1`, the Kd is > 4 mM (inactive). The value for `O=C1CC(=O)N(c2cccc(Cl)c2)N1` was > 4 mM (inactive); that for `Cn1c(-c2ccccc2F)n[nH]c1=S` was > 4 mM (inactive).

As to `O=c1[nH]cc(Nc2ccccc2)c(=O)[nH]1`, the Kd was > 4 mM (inactive). The value for `Cc1cc(C)nc(N2CC(=O)N(C)C2=N)n1` was > 4 mM (inactive); that for `Cn1c(=O)c2[nH]c(Nc3ccccc3)nc2n(C)c1=O` was > 4 mM (inactive). The value for `O=C(O)CCN1CCOCC1` was > 4 mM (inactive); that for `CC(=O)OCC(OC(C)=O)C(OC(C)=O)C(OC(C)=O)C(OC(C)=O)C(COC(C)=O)OC(C)=O` (stereo unspecified) was > 4 mM (inactive). As for `CCCN1CCC(N2CCC(O)CC2)CC1`, the figure is > 4 mM (inactive); as for `Nc1ccc2ncsc2c1`, > 4 mM (inactive). With `O=c1[nH]c(O)c(C=NC2CC2)c(=O)[nH]1`, the Kd is > 4 mM (inactive). As to `CCOC(=O)CSc1nnc(C)c(=O)[nH]1`, the Kd was > 4 mM (inactive). The value for `O=C(c1cc2ccccc2o1)c1nc2c(n1O)CCCCC2` was > 4 mM (inactive); that for `Nc1ccc2sccc2c1` was > 4 mM (inactive). As for `Cc1cc(C(=O)N2CCC3(CC2)OCCO3)cs1`, the figure is > 4 mM (inactive); as for `Cc1nc(N)sc1C(=O)N/N=C/c1ccncc1`, > 4 mM (inactive). As for `COC[C@]12CN(C=O)C3[C@@H]4[C@H](OC)C1[C@]3(C1CC3(O)C(OC)C(O)C4(OC(C)=O)C1C3OC(=O)c1ccccc1)[C@@H](OC)C[C@H]2O` (stereo partly specified), the figure is > 4 mM (inactive); as for `O=C(CN1C(=O)CCC1=O)c1ccccc1`, > 4 mM (inactive); as for `Cc1sc2nc(SC3CCOC3=O)[nH]c(=O)c2c1C` (stereo unspecified), > 4 mM (inactive). Regarding `Cc1nnc2n(c1=O)N=C(c1ccccc1)CS2`, the Kd was > 4 mM (inactive).

Consider `CCC[C@H]1CC2=C(C[C@@H](CC)CC3=C1C(=O)OC3=O)C(=O)OC2=O`, for which the Kd is > 4 mM (inactive). For the compound `O=C(/C=C/c1ccco1)NC1=NCCS1`, the Kd was > 4 mM (inactive). As for `O=C1CCC(=O)N1CNc1ccccc1`, the figure is > 4 mM (inactive).
